pEC50: −log10 of the molar value.
What was measured:
human EDG-1 = target: T1, human EDG-1 (Homo sapiens, UniProt P21453); experiment: GPCR activation assay measuring GTP [γ-35S] binding to membranes from CHO cells expressing human EDG receptors; type: biochemical
T1 construct: c-myc (N); expressed in transfected cells; homogenized membranes
Procedure: A. In vitro: GPCR Activation Assay Measuring GTP [γ-^35S] Binding to Membranes Prepared from CHO Cells Expressing Human EDG Receptors
EDG-1 (S1P1) GTP [γ-^35S] binding assay: Homogenized membranes are prepared from CHO cell clones stably expressing a human EDG-1 N-terminal c-myc tag. Cells are grown in suspension in two 850 cm^2 roller bottles for three or fours days before harvesting. The cells are centrifuged down, washed once with cold PBS, and resuspended in ≦20 ml of Buffer A (20 mM HEPES, pH 7.4, 10 mM EDTA, EDTA-free complete protease inhibitor cocktail [1 tablet/25 ml]). The cell suspension is homogenized on ice, using a Polytron homogenizer at 30000 rpm at three intervals of 15 seconds each. The homogenate is first centrifuged at 2000 rpm on a tabletop low speed centrifuge for 10 minutes. The supernatant, after passing through a cell strainer, is then re-centrifuged at 50,000×g for 25 minutes at 4° C. The pellet is resuspended into buffer B (15% glycerol, 20 mM HEPES, pH 7.4, 0.1 mM EDTA, EDTA-free complete protease inhibitor cocktail [1 tablet/10 ml]). Protein concentration of the prep is determined using the BCA Protein Assay kit (Pierce) using BSA as standard. The membranes are aliquoted and kept frozen at −80° C.
Solutions of test compounds ranging from 10 mM to 0.01 nM are prepared in DMSO. S1P is diluted in 4% BSA solution as positive controls. […]

blood lymphocytes = experiment: Measurement of circulating lymphocytes (blood lymphocyte depletion); type: in vivo, Rats (C57b1/6 male); settings: Rattus norvegicus, oral gavage, blood collected 6 and 24 hours after administration, read-out: ED50 (effective dose required displaying 50% of blood lymphocyte depletion)
Procedure: C. In vivo: Screening Assays for Measurement of Blood Lymphocyte Depletion and Assessment of Heart Effect
Measurement of circulating lymphocytes: Compounds are dissolved in DMSO and diluted to obtain a final concentration of 4% DMSO (v/v, final concentration) and then further diluted in a constant volume of Tween80 25%/H2O, v/v. Tween80 25%/H2O (200 μl), 4% DMSO, and FTY720 (10 μg) are included as negative and positive controls, respectively. Rats (C57b1/6 male, 6–10 week-old) are administered 250–300 μL of compound solution orally by gavages under short isoflurane anesthesia.
Blood is collected from the retro-orbital sinus 6 and 24 hours after drug administration under short isoflurane anesthesia. Whole blood samples are subjected to hematology analysis. Peripheral lymphocyte counts are determined using an automated analyzer. Subpopulations of peripheral blood lymphocytes are stained by fluorochrome-conjugated specific antibodies and analyzed using a fluorescent activating cell sorter (Facscalibur). Two rats are used to assess the lymphocyte depletion activity of each compound screened. The result is an ED50, which is defined as the effective dose required displaying 50% of blood lymphocyte depletion.

T1 sequence (P21453 whole entry): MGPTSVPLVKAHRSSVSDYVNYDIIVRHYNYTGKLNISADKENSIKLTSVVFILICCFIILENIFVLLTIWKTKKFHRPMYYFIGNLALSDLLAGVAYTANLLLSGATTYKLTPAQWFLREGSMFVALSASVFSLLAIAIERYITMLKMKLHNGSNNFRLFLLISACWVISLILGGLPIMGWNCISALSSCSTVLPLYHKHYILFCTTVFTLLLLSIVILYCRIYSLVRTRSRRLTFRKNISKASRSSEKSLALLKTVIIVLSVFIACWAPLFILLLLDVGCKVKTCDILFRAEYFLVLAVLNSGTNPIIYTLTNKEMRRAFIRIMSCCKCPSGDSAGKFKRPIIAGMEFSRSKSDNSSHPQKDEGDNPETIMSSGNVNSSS

pEC50 (human EDG-1; EDG-1 (S1P1) GTP [γ-35S] binding, CHO cell membranes): 9.09
selectivity for EDG-1 compared to one or more of the other receptors including EDG-3, EDG-5, EDG-6 and EDG-8 (human EDG-1; GTP [γ-35S] binding assays): at least 1000 fold
Compound: O=C(O)C1CN(Cc2ccc(SCc3ccc(-c4ccccc4)c(C(F)(F)F)c3)cc2)C1 [Compound 9, 1-[4-(2-trifluoromethyl-biphenyl-4-ylmethylsulfanyl)-benzyl]-azetidine-3-carboxylic acid]
ED50 (blood lymphocytes): < 0.1 mg/kg
